Experimental findings from patent US10321683B2, “Insecticidal, miticidal, nematicidal, molluscicidal, microbicidal, or bactericidal composition and method for controlling pest” (NISSAN CHEMICAL INDUSTRIES, LTD., priority 2014, dated 2019) are described below.

Assay [1] concerns third instar larvae of common cutworms. Description: Efficacy test for common cutworm (cabbage leaf dip). To be noted: six days after the treatment. Type of assay: in vivo, Common cutworm (Spodoptera litura). The method, then:
Each of Compound (1) or Compound (2) and the compounds listed in Table 1 was formulated into a 10% emulsifiable concentrate (some compound was formulated into a 25% wettable powder). The formulations were diluted with water containing a spreading agent to prepare chemical solutions of given concentrations. Cabbage leaves were dipped in the chemical solutions for 10 seconds. The dipped cabbage leaves were transferred on filter papers placed in 7 cm petri dishes with one leaf per one petri dish, and the leaves were air dried. After the air drying was completed, the seven third instar larvae of common cutworms were placed in each petri dish and then the petri dishes were placed in an incubator at 25° C. Six days after the treatment, the numbers of dead larvae were checked, and the percentages of dead insects were calculated according to the calculating equation below. Note that the tests were conducted in duplicate. The percentage of dead insects (%)=the number of dead insects/the number of tested insects×100
(§1) To each concentration of chemical solutions, the synergistic effect was calculated from the percentage of dead insects by using Colby's method (Colby S. R. 1976, Weeds 15, 20-22). The calculation method was as follows. E=X+Y−XY/100
(§2) X: an observed value at an x concentration of Chemical A (the percentage of dead insects)
(§3) Y: an observed value at a y concentration of Chemical B (the percentage of dead insects)
(§4) E: the percentage of dead insects expected at the time of a mixed treatment with Chemical A and Chemical B.
(§5) If the observed value was larger than the expected value, there was a synergistic effect; if the expected value was larger than the observed value, there was an antagonist effect; and if the observed value and the expected value were same, there was an additive effect.

Assay [2] deals with Western flower thrips larva. Description: Efficacy test for Western flower thrips larva (leaf disk spray). The following applies: 1 day after spraying. Type of assay: in vivo, Western flower thrips (Frankliniella occidentalis). Here is the method: A styrol cup (having the diameter of the lid of 7.5 cm, and the height of 4 cm) was filled with tap water, and a lid having a hole in its center was placed on the styrol cup, and a leaf disk (having the diameter of 1.7 cm) made of a common bean leaf was placed on the lid. Suitable amounts of eggs of Western flower thrips were placed on the leaf disk, and were controlled in a thermostatic chamber for 24 hours to be hatched. Each of Compound (1) or Compound (2) and the compounds listed in Table 1 was formulated into a 10% emulsifiable concentrate. The formulations were diluted with water to prepare chemical solutions of given concentrations. Each of the test containers was treated with a spray solution as was uniformly sprayed by using a spraying apparatus (2.5 ml/cup). Examinations were conducted 1 day after spraying, and the percentages of dead insects were calculated according to the calculating equation below. Note that the tests were conducted in duplicate. The percentage of dead insects (%)=the number of dead insects/the number of tested insects×100
as §1, §2, §3, §4, §5

Another assay deals with varroa mites. Description: Efficacy test for varroa mite (coated screw bottle). The following applies: 100 μg/tube; 24 hours after placing. It counts as in vivo. Here is the method: The Compound (1) or Compound (2) was adjusted to a given concentration with acetone. After the adjustment, 300 μl of each of the prepared solutions was poured into a 20 ml screw bottle. The solvent was volatilized as the inner surface of the bottle was uniformly coated with the solution, and then the bottle was stored in a cool and dark place overnight. To obtain varroa mites, a blood comb was taken out from a beehive of honey bees on the day before placing of mites, and pupae having varroa mites were taken and placed in a petri dish. The petri dish was stored in an incubator at 34° C. overnight under the total darkness condition, and then only surviving varroa mites were collected. The collected varroa mites were placed in each of the screw bottles that were treated with the above-described chemicals, and the screw bottles were closed with caps. After three hours, the pupae of honey bees were placed in the screw bottles; the screw bottles were closed with caps again, and were stored in an incubator at 34° C. under the total darkness condition. The number of dead insects 24 hours after placing was checked, and the percentages of dead insects were calculated according to the calculating equation below. Note that the tests were conducted in quadruplicate of three in one plot. The percentage of dead insects (%)=the number of dead insects/the number of tested insects×100

The test system of assay [3] is fourth instar larvae of cotton bollworms. Description: Efficacy test for cotton bollworm (cabbage leaf dip). To be noted: six days after the treatment. Type of assay: in vivo, Cotton bollworm (Helicoverpa armigera). Here is the method:
Each of Compound (1) or Compound (2) and the compounds listed in Table 1 was formulated into a 10% emulsifiable concentrate (some compound was formulated into a 25% wettable powder). The formulations were diluted with water containing a spreading agent to prepare chemical solutions of given concentrations. Cabbage leaves were dipped in the chemical solutions for 10 seconds. The dipped cabbage leaves were transferred on filter papers placed in 7 cm petri dishes with one leaf per one petri dish, and the leaves were air dried. After the air drying was completed, the seven fourth instar larvae of cotton bollworms were placed in each petri dish, and then, the petri dishes were placed in an incubator at 25° C. Six days after the treatment, the numbers of dead larvae were checked, and the percentages of dead insects were calculated according to the calculating equation below. Note that the tests were conducted in duplicate. The percentage of dead insects (%)=the number of dead insects/the number of tested insects×100
as §1, §2, §3, §4, §5

Assay [4] relates to melon thrips female adult insects. As to the kind of experiment: Efficacy test for melon thrips female adult insect (leaf disk spray). It counts as in vivo, Melon thrips (Thrips palmi). The following applies: 2 days after spraying. The method, then:
(§6) Each of Compound (1) or Compound (2) and the compounds listed in Table 1 was formulated into a 10% emulsifiable concentrate. The formulations were diluted with water to prepare chemical solutions of given concentrations. A styrol cup (having the diameter of the lid of 7.5 cm, and the height of 4 cm) was filled with tap water, and a lid having a hole in its center was placed on the styrol cup, and a filter paper was placed on the lid to absorb tap water. An absorbent cotton (5 cm×5 cm) wetted with tap water was placed on the filter paper, and a leaf disk (having the diameter of 1.7 cm) made of a cucumber leaf was placed on the absorbent cotton. The ten melon thrips female adult insects were placed on the leaf disk. Each of the test containers was treated with a spray solution as was uniformly sprayed by using a spraying apparatus (2.5 ml/cup). Examinations were conducted 2 days after spraying, and the percentages of dead insects were calculated according to the calculating equation below. Note that the tests were conducted in duplicate. The percentage of dead insects (%)=the number of dead insects/the number of tested insects×100
To each concentration of chemical solutions, the synergistic effect was calculated from the percentage of dead insects by using Colby's method (Colby S. R. 1976, Weeds 15, 20-22). The calculation method was as follows. E=X+Y−XY/100 […]

The subject of assay [5] is sweetpotato whitefly adult insects. As to the kind of experiment: Efficacy test for sweetpotato whitefly biotype B (leaf disk spray). It counts as in vivo, Sweetpotato whitefly (Bemisia tabaci) biotype B. To be noted: 5 days after spraying. The method, then: as §6, with “of 3” for “of 1.7”, “a common bean” for “a cucumber”, “cotton.” for “cotton. The ten melon thrips female adult insects were placed on the leaf disk.”, “ml/cup). The 20 sweetpotato whitefly adult insects were placed on the leaf disk, and a mesh lid was placed over the container to prevent escape of the insects.” for “ml/cup).”, “conducted 5” for “conducted 2”, “insects×100 To each concentration of chemical solutions, the synergistic effect was calculated from the percentage of dead insects by using Colby's method (Colby S. R. […], Weeds 15, 20-22). […]” for “insects×100”

As to `N#Cc1ccc(CC(=NNC(=O)Nc2ccc(OC(F)(F)F)cc2)c2cccc(C(F)(F)F)c2)cc1` (mixture of isomers) [Compound dc, metaflumizone, reference compound], the “Percentage of Dead Insect (%) Observed Value” in assay [1] (Table 6, 1.7 ppm) amounted to 53.8%. With `Cc1c(COC(=O)[C@@H]2[C@H](/C=C(\Cl)C(F)(F)F)C2(C)C)cccc1-c1ccccc1` (racemic) [Compound q, bifenthrin], the “Percentage of Dead Insect (%) Observed Value” in assay [2] (20 ppm) is listed as 8.5%. `Cc1cc(C2=NOC(c3cc(Cl)cc(Cl)c3)(C(F)(F)F)C2)ccc1C(=O)NCC(=O)NCC(F)(F)F` (stereo not drawn) [Compound (1), 4-[5-(3,5-dichlorophenyl)-4,5-dihydro-5-(trifluoromethyl)isoxazole-3-yl]-2-methyl-N-[2-oxo-2-[(2,2,2-trifluoroethyl)amino]ethyl]benzamide]: the “Percentage of Dead Insect (%) Observed Value” in assay [1] (0.017 ppm) and in assay [3] (0.125 ppm) was 28.6% each time. The “Percentage of Dead Insect (%)” value in the assay with varroa mites worked out at 100%. As for `CO/N=C\NC(=O)c1ccc(C2=NOC(c3cc(Cl)cc(Cl)c3)(C(F)(F)F)C2)cc1C` (stereo not drawn) [Compound (2), (Z)-4-[5-(3,5-dichlorophenyl)-5-trifluoromethyl-4,5-dihydroisoxazole-3-yl]-N-(methoxyiminomethyl)-2-methylbenzamide], the “Percentage of Dead Insect (%) Observed Value” in assay [4] (5 ppm) is on record as 42.1%; in assay [2] (1 ppm), 29.5%; in assay [1] (0.017 ppm), 35.7%; in assay [1] (Table 4, 0.025 ppm) it was 35.7%; in assay [1] (Table 5, 0.025 ppm) it was 35.7%; in assay [1] (Table 6, 0.025 ppm), 35.7%. Further, the “Percentage of Dead Insect (%) Observed Value” in assay [1] (Table 7, 0.005 ppm) stood at 14.3%; in assay [1] (Table 8, 0.005 ppm), 14.3%; in assay [5] (5 ppm), 36.6%; in assay [3] (0.125 ppm), 35.7%. Besides, the “Percentage of Dead Insect (%)” value in the assay on varroa mites worked out at 100%. Turning to `CNC(=O)c1cc(Cl)cc(C)c1NC(=O)c1cc(Br)nn1-c1ncccc1Cl` [Compound aa, chlorantraniliprole, reference compound], in assay [1] (0.083 ppm), the “Percentage of Dead Insect (%) Observed Value” was 21.4%. With `CNC(=O)c1cc(C#N)cc(C)c1NC(=O)c1cc(Br)nn1-c1ncccc1Cl` [Compound al, cyantraniliprole, reference compound], in assay [3] (0.25 ppm), the “Percentage of Dead Insect (%) Observed Value” was found to be 42.9%. On to `CC(NC(=O)c1cc(Cl)cc(Br)c1NC(=O)c1cc(Br)nn1-c1ncccc1Cl)C1CC1` (stereo not drawn) [Compound am, cyclaniliprole, reference compound], for which the “Percentage of Dead Insect (%) Observed Value” in assay [1] (Table 7, 0.17 ppm) is recorded as 7.7%. Take `CC1(C)[C@H](C(=O)O[C@H](C#N)c2cccc(Oc3ccccc3)c2)[C@@H]1/C=C(\Cl)C(F)(F)F` [Compound ar, gamma-cyhalothrin, reference compound]: the “Percentage of Dead Insect (%) Observed Value” in assay [1] (0.5 ppm) stood at 35.7%. With `CCc1nc2cc(C)c(Oc3ccc(OC(F)(F)F)cc3)cc2c(OC(=O)OC)c1C` [Compound bx, flometoquin, reference compound], the “Percentage of Dead Insect (%) Observed Value” in assay [4] (2.5 ppm) was found to be 52.6%. Regarding `Cc1cc(C(F)(C(F)(F)F)C(F)(F)F)ccc1NC(=O)c1cccc(I)c1C(=O)NC(C)(C)CS(C)(=O)=O` [Compound ca, flubendiamide, reference compound], the “Percentage of Dead Insect (%) Observed Value” in assay [3] (0.025 ppm) is listed as 35.7%.

Take `O=C(NC(=O)c1c(F)cccc1F)Nc1ccc(Oc2ccc(C(F)(F)F)cc2Cl)cc1F` [Compound ce, flufenoxuron]: in assay [2] (20 ppm), the “Percentage of Dead Insect (%) Observed Value” was found to be 27.2%. As for `O=C1C=C(N(Cc2ccc(Cl)nc2)CC(F)F)CO1` [Compound ci, flupyradifurone, reference compound], the “Percentage of Dead Insect (%) Observed Value” in assay [5] (25 ppm) was 40.5%. For “spinetoram [Compound el, reference compound]”, the “Percentage of Dead Insect (%) Observed Value” in assay [1] (Table 5, 4.4 ppm) turned out to be 78.6%.

As to “spinosad [Compound em, reference compound]”, the “Percentage of Dead Insect (%) Observed Value” in assay [1] (Table 4, 32 ppm) was found to be 60.0%. In the case of “tetraniliprole [Compound ey, reference compound]”, in assay [1] (Table 8, 1.7 ppm), the “Percentage of Dead Insect (%) Observed Value” is listed as 64.3%.
